Assay results from PubChem BioAssay (NCI).
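Protocol summary: plate cells (96-well), add compound at 5 concentrations, incubate 48 h, interpolate endpoints linearly. At the GI50, growth is halved. TGI: concentration producing complete growth inhibition.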

Columns and labels:
Assay in all cases: inhibition of tumour cell growth, NCI panel, 48 h
786-0 renal = test system: 786-0 renal
A498 renal = test system: A498 renal
A549 NSCLC = test system: A549 NSCLC
ACHN renal = test system: ACHN renal
BT-549 breast = test system: BT-549 breast
CAKI-1 renal = test system: CAKI-1 renal
CCRF-CEM leukemia = test system: CCRF-CEM leukemia
COLO 205 colon = test system: COLO 205 colon
DU-145 prostate = test system: DU-145 prostate
EKVX NSCLC = test system: EKVX NSCLC
HCC-2998 colon = test system: HCC-2998 colon
HCT-116 colon = test system: HCT-116 colon
HCT-15 colon = test system: HCT-15 colon
HL-60(TB) leukemia = test system: HL-60(TB) leukemia
HOP-62 NSCLC = test system: HOP-62 NSCLC
HOP-92 NSCLC = test system: HOP-92 NSCLC
HS 578T breast = test system: HS 578T breast
HT29 colon = test system: HT29 colon
IGROV1 ovarian = test system: IGROV1 ovarian
K-562 leukemia = test system: K-562 leukemia
KM12 colon = test system: KM12 colon
LOX IMVI melanoma = test system: LOX IMVI melanoma
M14 melanoma = test system: M14 melanoma
MALME-3M melanoma = test system: MALME-3M melanoma
MCF7 breast = test system: MCF7 breast
MDA-MB-231 breast = test system: MDA-MB-231 breast
MDA-MB-435 = test system: MDA-MB-435
MOLT-4 leukemia = test system: MOLT-4 leukemia
NCI-H226 lung = test system: NCI-H226 lung
NCI-H23 lung = test system: NCI-H23 lung
NCI-H460 lung = test system: NCI-H460 lung
NCI-H522 lung = test system: NCI-H522 lung
NCI/ADR-RES ovarian = test system: NCI/ADR-RES ovarian
OVCAR-3 ovarian = test system: OVCAR-3 ovarian
OVCAR-4 ovarian = test system: OVCAR-4 ovarian
OVCAR-5 ovarian = test system: OVCAR-5 ovarian
OVCAR-8 ovarian = test system: OVCAR-8 ovarian
PC-3 prostate = test system: PC-3 prostate
RPMI-8226 leukemia = test system: RPMI-8226 leukemia
RXF 393 renal = test system: RXF 393 renal
SF-268 CNS = test system: SF-268 CNS
SF-295 CNS = test system: SF-295 CNS
SF-539 CNS = test system: SF-539 CNS
SK-MEL-2 melanoma = test system: SK-MEL-2 melanoma
SK-MEL-28 melanoma = test system: SK-MEL-28 melanoma
SK-MEL-5 melanoma = test system: SK-MEL-5 melanoma
SK-OV-3 ovarian = test system: SK-OV-3 ovarian
SN12C renal = test system: SN12C renal
SNB-19 CNS = test system: SNB-19 CNS
SNB-75 CNS = test system: SNB-75 CNS
SR leukemia = test system: SR leukemia
SW-620 colon = test system: SW-620 colon
T-47D breast = test system: T-47D breast
TK-10 renal = test system: TK-10 renal
U251 CNS = test system: U251 CNS
UACC-257 melanoma = test system: UACC-257 melanoma
UACC-62 melanoma = test system: UACC-62 melanoma
UO-31 renal = test system: UO-31 renal

In the case of CC(=O)C(C)CCOC1(C)OCCC1C (centres undefined), the TGI (786-0 renal) is reported as > 100 µM, the TGI (A498 renal) is reported as > 100 µM and the TGI (A549 NSCLC) is reported as > 100 µM. For the same molecule, the TGI (ACHN renal) was > 100 µM, the TGI (BT-549 breast) was > 100 µM and the TGI (CAKI-1 renal) was > 100 µM. For the same molecule, the TGI (CCRF-CEM leukemia) was > 100 µM, the TGI (COLO 205 colon) was > 100 µM and the TGI (DU-145 prostate) was > 100 µM. For the same molecule, the TGI (EKVX NSCLC) was > 100 µM, the TGI (HCC-2998 colon) was > 100 µM and the TGI (HCT-116 colon) was > 100 µM. The TGI (HCT-15 colon) was > 100 µM, the TGI (HL-60(TB) leukemia) was > 100 µM and the TGI (HOP-62 NSCLC) was > 100 µM. The TGI (HOP-92 NSCLC) was > 100 µM, the TGI (HS 578T breast) was > 100 µM and the TGI (HT29 colon) was > 100 µM. The TGI (IGROV1 ovarian) was > 100 µM, the TGI (K-562 leukemia) was > 100 µM and the TGI (KM12 colon) was > 100 µM. The TGI (LOX IMVI melanoma) was > 100 µM, the TGI (M14 melanoma) was > 100 µM and the TGI (MALME-3M melanoma) was > 100 µM. For the same molecule, the TGI (MCF7 breast) was > 100 µM, the TGI (MDA-MB-231 breast) was > 100 µM and the TGI (MDA-MB-435) was > 100 µM. For the same molecule, the TGI (MOLT-4 leukemia) was > 100 µM, the TGI (NCI-H226 lung) was > 100 µM and the TGI (NCI-H23 lung) was > 100 µM. The TGI (NCI-H460 lung) was > 100 µM, the TGI (NCI-H522 lung) was > 100 µM and the TGI (NCI/ADR-RES ovarian) was > 100 µM. For the same molecule, the TGI (OVCAR-3 ovarian) was > 100 µM, the TGI (OVCAR-4 ovarian) was > 100 µM and the TGI (OVCAR-5 ovarian) was > 100 µM. For the same molecule, the TGI (OVCAR-8 ovarian) was > 100 µM, the TGI (PC-3 prostate) was > 100 µM and the TGI (RPMI-8226 leukemia) was > 100 µM. For the same molecule, the TGI (RXF 393 renal) was > 100 µM, the TGI (SF-268 CNS) was > 100 µM and the TGI (SF-295 CNS) was > 100 µM. The TGI (SF-539 CNS) was > 100 µM, the TGI (SK-MEL-2 melanoma) was > 100 µM and the TGI (SK-MEL-28 melanoma) was > 100 µM. For the same molecule, the TGI (SK-MEL-5 melanoma) was > 100 µM, the TGI (SK-OV-3 ovarian) was > 100 µM and the TGI (SN12C renal) was > 100 µM. For the same molecule, the TGI (SNB-19 CNS) was > 100 µM, the TGI (SNB-75 CNS) was > 100 µM and the TGI (SR leukemia) was > 100 µM. For the same molecule, the TGI (SW-620 colon) was > 100 µM, the TGI (T-47D breast) was > 100 µM and the TGI (TK-10 renal) was > 100 µM. For the same molecule, the TGI (U251 CNS) was > 100 µM, the TGI (UACC-257 melanoma) was > 100 µM and the TGI (UACC-62 melanoma) was > 100 µM. For the same molecule, the TGI (UO-31 renal) was > 100 µM.

Work on NS(=O)(=O)N(c1cc(C(F)(F)F)cc(C(F)(F)F)c1)C1CCN(Cc2ccc(F)cc2)CC1 yielded a GI50 (786-0 renal) of 11.4 µM, a TGI (786-0 renal) of 23.5 µM and a GI50 (A498 renal) of 12.3 µM. For the same molecule, the TGI (A498 renal) was 26.1 µM, the GI50 (A549 NSCLC) was 12.4 µM and the TGI (A549 NSCLC) was 29.1 µM. The GI50 (ACHN renal) was 11.2 µM, the TGI (ACHN renal) was 23.3 µM and the GI50 (BT-549 breast) was 12.5 µM. The TGI (BT-549 breast) was 24.9 µM, the GI50 (CAKI-1 renal) was 7.21 µM and the TGI (CAKI-1 renal) was 20.4 µM. For the same molecule, the GI50 (CCRF-CEM leukemia) was 12 µM, the TGI (CCRF-CEM leukemia) was 36.3 µM and the GI50 (COLO 205 colon) was 1.64 µM. It also gave a TGI (COLO 205 colon) of 3.08 µM, a GI50 (DU-145 prostate) of 13.5 µM and a TGI (DU-145 prostate) of 26.3 µM. For the same molecule, the GI50 (EKVX NSCLC) was 11.2 µM, the TGI (EKVX NSCLC) was 23.8 µM and the GI50 (HCC-2998 colon) was 1.83 µM. It also gave a TGI (HCC-2998 colon) of 3.56 µM, a GI50 (HCT-116 colon) of 7.38 µM and a TGI (HCT-116 colon) of 19.8 µM. The GI50 (HCT-15 colon) was 7.3 µM, the TGI (HCT-15 colon) was 21.8 µM and the GI50 (HL-60(TB) leukemia) was 9.11 µM. For the same molecule, the TGI (HL-60(TB) leukemia) was 28.6 µM, the GI50 (HOP-62 NSCLC) was 3.51 µM and the TGI (HOP-62 NSCLC) was 14.1 µM. It also gave a GI50 (HOP-92 NSCLC) of 1.87 µM, a TGI (HOP-92 NSCLC) of 15.2 µM and a GI50 (HS 578T breast) of 13.8 µM. It also gave a TGI (HS 578T breast) of 33.6 µM, a GI50 (HT29 colon) of 2.68 µM and a TGI (HT29 colon) of 7.51 µM. For the same molecule, the GI50 (IGROV1 ovarian) was 4.89 µM, the TGI (IGROV1 ovarian) was 18 µM and the GI50 (K-562 leukemia) was 3.68 µM. The TGI (K-562 leukemia) was 19 µM, the GI50 (KM12 colon) was 5.16 µM and the TGI (KM12 colon) was 17 µM. The GI50 (LOX IMVI melanoma) was 3.83 µM, the TGI (LOX IMVI melanoma) was 13.7 µM and the GI50 (M14 melanoma) was 6.12 µM. It also gave a TGI (M14 melanoma) of 18.4 µM, a GI50 (MALME-3M melanoma) of 2.31 µM and a TGI (MALME-3M melanoma) of 9.5 µM. For the same molecule, the GI50 (MCF7 breast) was 5.44 µM, the TGI (MCF7 breast) was 18.5 µM and the GI50 (MDA-MB-231 breast) was 12.1 µM. For the same molecule, the TGI (MDA-MB-231 breast) was 26.2 µM, the GI50 (MDA-MB-435) was 6.4 µM and the TGI (MDA-MB-435) was 19.7 µM. The GI50 (MOLT-4 leukemia) was 8.51 µM, the TGI (MOLT-4 leukemia) was 29.6 µM and the GI50 (NCI-H226 lung) was 6.73 µM. The TGI (NCI-H226 lung) was 21.7 µM, the GI50 (NCI-H23 lung) was 10.4 µM and the TGI (NCI-H23 lung) was 22.1 µM. For the same molecule, the GI50 (NCI-H460 lung) was 13.2 µM, the TGI (NCI-H460 lung) was 31 µM and the GI50 (NCI-H522 lung) was 3.52 µM. For the same molecule, the TGI (NCI-H522 lung) was 13.4 µM, the GI50 (NCI/ADR-RES ovarian) was 6.72 µM and the TGI (NCI/ADR-RES ovarian) was 19.4 µM. It also gave a GI50 (OVCAR-3 ovarian) of 7.6 µM, a TGI (OVCAR-3 ovarian) of 20.4 µM and a GI50 (OVCAR-4 ovarian) of 10.5 µM. The TGI (OVCAR-4 ovarian) was 22.2 µM, the GI50 (OVCAR-5 ovarian) was 10.9 µM and the TGI (OVCAR-5 ovarian) was 23.2 µM. For the same molecule, the GI50 (OVCAR-8 ovarian) was 15.5 µM, the TGI (OVCAR-8 ovarian) was 33.9 µM and the GI50 (PC-3 prostate) was 4.54 µM. For the same molecule, the TGI (PC-3 prostate) was 17.6 µM, the GI50 (RPMI-8226 leukemia) was 5.24 µM and the TGI (RPMI-8226 leukemia) was 22.3 µM. It also gave a GI50 (RXF 393 renal) of 4.42 µM, a TGI (RXF 393 renal) of 16.6 µM and a GI50 (SF-268 CNS) of 10.9 µM. The TGI (SF-268 CNS) was 22.9 µM, the GI50 (SF-295 CNS) was 13.8 µM and the TGI (SF-295 CNS) was 27.7 µM. For the same molecule, the GI50 (SF-539 CNS) was 14.1 µM, the TGI (SF-539 CNS) was 27.6 µM and the GI50 (SK-MEL-2 melanoma) was 5.87 µM. The TGI (SK-MEL-2 melanoma) was 18.1 µM, the GI50 (SK-MEL-28 melanoma) was 11.6 µM and the TGI (SK-MEL-28 melanoma) was 23.8 µM. For the same molecule, the GI50 (SK-MEL-5 melanoma) was 3.44 µM, the TGI (SK-MEL-5 melanoma) was 12.7 µM and the GI50 (SK-OV-3 ovarian) was 10.9 µM. It also gave a TGI (SK-OV-3 ovarian) of 23.3 µM, a GI50 (SN12C renal) of 2.97 µM and a TGI (SN12C renal) of 11.6 µM. For the same molecule, the GI50 (SNB-19 CNS) was 14.3 µM, the TGI (SNB-19 CNS) was 27.8 µM and the GI50 (SNB-75 CNS) was 13.2 µM. The TGI (SNB-75 CNS) was 25.9 µM, the GI50 (SR leukemia) was 2.4 µM and the TGI (SR leukemia) was 9.02 µM. The GI50 (SW-620 colon) was 13.7 µM, the TGI (SW-620 colon) was 30.7 µM and the GI50 (T-47D breast) was 2.74 µM. It also gave a TGI (T-47D breast) of 13.9 µM, a GI50 (TK-10 renal) of 12.2 µM and a TGI (TK-10 renal) of 25.4 µM. The GI50 (U251 CNS) was 10.7 µM, the TGI (U251 CNS) was 24.5 µM and the GI50 (UACC-257 melanoma) was 11.5 µM. It also gave a TGI (UACC-257 melanoma) of 25.3 µM, a GI50 (UACC-62 melanoma) of 12.7 µM and a TGI (UACC-62 melanoma) of 25.6 µM. For the same molecule, the GI50 (UO-31 renal) was 3.67 µM and the TGI (UO-31 renal) was 16.4 µM.
